Assay results published in US20250011281A1, “THERAPEUTIC ALKALOID COMPOUNDS” (Sensorium Therapeutics, Inc., priority 2023, published 2025).
Where two headings read alike, the source gives them in different places.

Tests used:
SERT = biological target: T1, SERT (Homo sapiens, UniProt P31645); assay: SERT Inhibition Assay (Neurotransmitter Transportation Fluorescence assay); type: cell-based; details: for IC50 Ratio to (−) Mesembrine: SERT assay, ratio to compound 0001
T1 construct: expressed in transfected cells
T1 sequence (P31645 whole entry, species assumed): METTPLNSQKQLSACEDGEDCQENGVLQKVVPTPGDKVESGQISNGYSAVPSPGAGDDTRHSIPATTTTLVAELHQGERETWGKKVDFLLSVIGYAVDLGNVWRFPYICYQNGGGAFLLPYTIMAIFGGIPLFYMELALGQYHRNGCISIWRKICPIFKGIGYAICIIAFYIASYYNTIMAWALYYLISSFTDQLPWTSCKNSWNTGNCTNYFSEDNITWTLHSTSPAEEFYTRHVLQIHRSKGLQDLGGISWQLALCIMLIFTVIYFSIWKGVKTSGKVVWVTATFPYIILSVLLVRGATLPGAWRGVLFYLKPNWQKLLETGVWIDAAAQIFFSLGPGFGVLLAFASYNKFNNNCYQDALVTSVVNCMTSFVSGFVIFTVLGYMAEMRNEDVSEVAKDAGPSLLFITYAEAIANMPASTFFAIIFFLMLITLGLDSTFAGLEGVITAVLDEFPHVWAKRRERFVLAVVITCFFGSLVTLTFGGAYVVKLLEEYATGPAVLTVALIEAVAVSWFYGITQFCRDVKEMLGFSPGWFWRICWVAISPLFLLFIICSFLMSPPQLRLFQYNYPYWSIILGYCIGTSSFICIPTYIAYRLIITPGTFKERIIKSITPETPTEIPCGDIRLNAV
Protocol: Example A: SERT Inhibition Assay
SERT inhibition was measured using a Neurotransmitter Transportation Fluorescence assay. Briefly, stable 5HHH cells were prepared in a 384 microwell plate. Compounds were prepared by in assay buffer (20 mM HEPES, 0.1% BSA). The compounds were added to the plated cells and incubated for 30 minutes at 37° C. 25 μL of dye solution (Molecular Devices Neurotransmitter Transporter Uptake Assay Kit) was added per well and incubated for 30 minutes at 37° C. The plates were then read on a plate reader.

5-HT transporter (SERT) = 5-HT transporter (SERT) (Homo sapiens, UniProt P31645); details: concentration response curves; cited from earlier work
Sequence of 5-HT transporter (SERT) (P31645 whole entry, species assumed): as above

5-HTT = 5-HTT (Homo sapiens, UniProt P31645); assay: Potency at 5-HTT compared to mesembrine
Sequence of 5-HTT (P31645 whole entry, species assumed): as above

[1] = Metabolic stability compared to mesembrine; type: in vitro ADME
[2] = stable 5HHH cells, 30 minutes at 37° C., read-out: SERT Assay Potency Range

With `COc1ccc([C@]23CCN(C)[C@H]2[C@H]2CC[C@@H]3C[C@H]2O)cc1OC` [Compound 1933] the “IC50 Ratio to (−) Mesembrine” value (SERT) was at least 1.0 and the IC50 (SERT; [2]) was under 50 nM.

In the case of `CCOc1ccc([C@@]23CC[C@@H](O)C[C@@H]2N(C)CC3)cc1OCC` [Compound 1763], the “IC50 Ratio to (−) Mesembrine” value (SERT) is reported as at least 1.0 and the IC50 (SERT; [2]) is reported as under 50 nM.

For `COc1cc([C@@]23CC[C@H](O)C[C@@H]2N(C)CC3)ccc1OC(F)F` [Compound 2724], the “IC50 Ratio to (−) Mesembrine” value (SERT) was at most 0.5 and the IC50 (SERT; [2]) was under 50 nM.

For `CCN1CC[C@]2(c3ccc(OC)c(OC)c3)CC[C@@H](O)C[C@H]12` [Compound 1001], the “IC50 Ratio to (−) Mesembrine” value (SERT) was at least 100 and the IC50 (SERT; [2]) was over 1000 nM.

In the case of `COc1ccc([C@@]23CC[C@@H](O)C[C@@H]2N(C)CC3)cc1OC` [Compound 0018, (3aS,6R,7aS)-3a-(3,4-dimethoxyphenyl)-1-methyloctahydro-1H-indol-6-ol], the “IC50 Ratio to (−) Mesembrine” value (SERT) is reported as at least 1.0 and the IC50 (SERT; [2]) is reported as under 50 nM.

In the case of `COc1ccc([C@]23CCN(C)[C@H]2C[C@@H](O)[C@@H]2O[C@@H]23)cc1OC` [Compound 1930], the “IC50 Ratio to (−) Mesembrine” value (SERT) is reported as at least 10 and the IC50 (SERT; [2]) is reported as 100 to 500 nM.

For `COc1ccc([C@@]23C=C[C@@H](O)C[C@@H]2N(C)CC3)cc1OC` [Mesembrenol, mesembrenol], the nH (5-HT transporter (SERT)) is given as 1.1.

For `COc1ccc([C@]23C=C[C@@H](O)C[C@H]2N(C)CC3)cc1OC` [Compound 0024], the “IC50 Ratio to (−) Mesembrine” value (SERT) was at least 100 and the IC50 (SERT; [2]) was 100 to 500 nM.

In the case of `COc1ccc([C@@]23C=C[C@H](O)C[C@@H]2N(C)CC3)cc1OC` [Compound 0021], the “IC50 Ratio to (−) Mesembrine” value (SERT) is reported as at least 10 and the IC50 (SERT; [2]) is reported as 100 to 500 nM.

With `COc1cc([C@@]23CC[C@@H](O)C[C@@H]2N(C)CC3)ccc1OC(F)F` [Compound 2723] the IC50 (SERT) was under 50 nM and the “IC50 Ratio to (−) Mesembrine” value (SERT) was at most 0.5.

In the case of `CCOc1ccc([C@@]23CC[C@H](O)C[C@@H]2N(C)CC3)cc1OCC` [Compound 1764], the “IC50 Ratio to (−) Mesembrine” value (SERT) is reported as at most 0.5 and the IC50 (SERT; [2]) is reported as under 50 nM.

For `COc1ccc([C@@]23C=C[C@@H](O)C[C@@H]2N(C)CC3)cc1OC` [Compound 0020], the “IC50 Ratio to (−) Mesembrine” value (SERT) was at least 100 and the IC50 (SERT; [2]) was 100 to 500 nM.

With `COc1ccc([C@@]23CCN(C)[C@@H]2C[C@H](O)[C@@H]2O[C@@H]23)cc1OC` (single isomer, unassigned) [Compound 1932] the “IC50 Ratio to (−) Mesembrine” value (SERT) was at least 10 and the IC50 (SERT; [2]) was 100 to 500 nM.

In the case of `COc1ccc([C@@]23CC[C@H](O)C[C@@H]2N(C)CC3)cc1OC` [Compound 0019, (3aS,6S,7aS)-3a-(3,4-dimethoxyphenyl)-1-methyloctahydro-1H-indol-6-ol], the “IC50 Ratio to (−) Mesembrine” value (SERT) is reported as at least 1.0 and the IC50 (SERT; [2]) is reported as under 50 nM.

For `COc1ccc([C@@]23CC[C@@H](O)C[C@@H]2N(C)CC3)cc1OC` [mesembranol, Mesembranol], the “potency at 5-HTT” value (5-HTT) was “decrease in potency” and the metabolic stability [1] was “enhanced metabolic stability”.

With `CCCOc1cc([C@@]23CC[C@H](O)C[C@@H]2N(C)CC3)ccc1OC` [Compound 0708] the “IC50 Ratio to (−) Mesembrine” value (SERT) was at least 1.0 and the IC50 (SERT; [2]) was under 50 nM.

With `COc1ccc([C@@]23CC[C@H](O)C[C@@H]2N(C)CC3)cc1OC` [6-epi-mesembranol] the “potency at 5-HTT” value (5-HTT) was “decrease in potency” and the metabolic stability [1] was “enhanced metabolic stability”.

With `CCN1CC[C@]2(c3ccc(OC)c(OC)c3)CC[C@H](O)C[C@H]12` [Compound 1002] the “IC50 Ratio to (−) Mesembrine” value (SERT) was at least 100 and the IC50 (SERT; [2]) was 500 to 1000 nM.

With `COc1ccc([C@]23C=C[C@H](O)C[C@H]2N(C)CC3)cc1OC` [Compound 0023] the “IC50 Ratio to (−) Mesembrine” value (SERT) was at least 10 and the IC50 (SERT; [2]) was 100 to 500 nM.

With `CCCOc1cc([C@@]23CC[C@@H](O)C[C@@H]2N(C)CC3)ccc1OC` [Compound 0707] the “IC50 Ratio to (−) Mesembrine” value (SERT) was at least 10 and the IC50 (SERT; [2]) was 50 to 100 nM.

For `COc1cc([C@@]23CC[C@H](O)C[C@@H]2N(C)CC3)ccc1O` [Compound 2700], the “IC50 Ratio to (−) Mesembrine” value (SERT) was at least 1.0 and the IC50 (SERT; [2]) was under 50 nM.
